In paper PMC5708337 (2017):

What was measured:
[1] = system: hTeloCBiotin (DNA, i motif) TAACCCTAACCCTAACCCTAACCC; experiment: SPR, single concentration; conditions: Na+ (100 mM NaCl, 10 mM sodium cacodylate), pH 5.5, 0.05% Tween-20, 5% DMSO, 50 μM compound; for binding: NB
[2] = system: c-MycCBiotin (DNA, i motif) CCTTCCCCACCCTCCCCACCCTCCCCA; experiment: SPR, single concentration; conditions: Na+ (100 mM NaCl, 10 mM sodium cacodylate); pH 5.5, 0.05% Tween-20, 5% DMSO; 50 μM compound
[3] = system: DSbiotin (DNA, duplex) GGCATAGTGCGTGGGCGTTAGC/GCTAACGCCCACGCACTATGCC; experiment: SPR, single concentration; conditions: Na+ (100 mM NaCl, 10 mM sodium cacodylate); pH 5.5, 0.05% Tween-20, 5% DMSO; 50 μM compound
[4] = system: hTeloC (DNA, i motif) TAACCCTAACCCTAACCCTAACCC; experiment: fluorescent intercalator displacement; conditions: Na+ (10 mM sodium cacodylate); pH 5.5; thiazole orange 2 μM displaced; 1 μM DNA
[5] = system: hTeloCBiotin (DNA, i motif) TAACCCTAACCCTAACCCTAACCC; experiment: SPR; conditions: Na+ (100 mM NaCl, 10 mM sodium cacodylate); pH 5.5, 0.05% Tween-20, 5% DMSO
[6] = system: c-MycCBiotin (DNA, i motif) CCTTCCCCACCCTCCCCACCCTCCCCA; experiment: SPR; conditions: Na+ (100 mM NaCl, 10 mM sodium cacodylate); pH 5.5, 0.05% Tween-20, 5% DMSO
[7] = system: DSbiotin (DNA, duplex) GGCATAGTGCGTGGGCGTTAGC/GCTAACGCCCACGCACTATGCC; experiment: SPR; conditions: Na+ (100 mM NaCl, 10 mM sodium cacodylate); pH 5.5, 0.05% Tween-20, 5% DMSO

| Structure (SMILES) | %Rmax [1] [%] | %Rmax [2] [%] | %Rmax [3] [%] | DC50 [4] [µM] | Kd [5] [µM] | Kd [6] [µM] | Kd [7] [µM] | binding [1] |
| --- | --- | --- | --- | --- | --- | --- | --- | --- |
| CCN(CC)CCOc1ccc2c(c1)C(=O)c1cc(OCCN(CC)CC)ccc1-2 | 116 | 420 | 811 | 2.4 | – | – | – | – |
| Nc1ccc(N=Nc2ccccc2)c(N)n1 | 38 | 71 | 137 | – | – | – | – | – |
| CCN(CC)Cc1cc(Nc2ccnc3cc(Cl)ccc23)ccc1O | 15 | 31 | 59 | – | – | – | – | – |
| O=C1c2c(O)ccc(O)c2C(=O)c2c(NCCNCCO)ccc(NCCNCCO)c21 | 2125 | 2534 | 4894 | 1.8 | – | – | – | – |
| NC[C@H]1O[C@H](O[C@H]2[C@H](O)[C@@H](O[C@H]3O[C@H](CO)[C@@H](O)[C@H](N)[C@H]3O)[C@H](N)C[C@@H]2N)[C@H](N)C[C@@H]1O | 325 | 121 | 233 | 2.9 | 17 ± 2.0 | 13 ± 1.8 | 18 ± 1.1 | – |
| CN(C)c1ccc(O)c2c1C[C@H]1C[C@H]3[C@H](N(C)C)C(O)=C(C(N)=O)C(=O)[C@@]3(O)C(O)=C1C2=O | 29 | 36 | 69 | – | – | – | – | – |
| O=C1c2ccc(O)c(O)c2C(=O)c2c(O)ccc(O)c21 | – | 49 | 95 | – | – | – | – | no |
| CC1=NCCc2c1[nH]c1cc(O)ccc21 | – | 64 | 123 | – | – | – | – | no |
